Reference: PMC9321043, “Synthesis, Structure–Activity Relationships, and Parasitological Profiling of Brussonol Derivatives as New Plasmodium falciparum Inhibitors” (Pharmaceuticals, 2022)
Where two headings read alike, the source gives them in different places.

Legend:
P. knowlesi = assay: In vitro evaluation against P. knowlesi, NanoLuc luminescence; assay type: cell-based; settings: Plasmodium knowlesi, 40 h
Description: The P. falciparum strains were cultivated in human blood cells (hRBC) O^+, while P. knowlesi was cultivated in rhesus red blood cells (rRBC) as described. P. falciparum complete RPMI (consisting of RPMI-1640, supplemented with 0.2% NaHCO3, 25 mM HEPES (pH 7.4), 11 mM D-glucose, 10 mg/L hypoxanthine, 25 mg/L gentamicin, and 0.5% (m/v) AlbuMAX II). The parasitemias of these cultures were maintained below 10% with 2.5% hematocrit. P. knowlesi complete RPMI (consisting of RPMI-1640 supplemented with 25 mM HEPES, […] hypoxanthine, 0.26% NaHCO3, 10 mg/L gentamicin, and 1% Albumax II). This culture was maintained with RBCs up to 5% hematocrit. The culture medium was changed daily, and all cultures were maintained under a 90% N2/5% CO2/5% O2 gas mixture at 37 °C. All compounds were purchased from Sigma-Aldrich (Cotia, Brazil).
Blood-stage P. knowlesi cultures were diluted to 0.5% parasitemia and brought to 2% hematocrit for growth in 96-well plates containing the desired drug concentration series (200 µL of culture/well). […] Parasite growth in the plates was measured by luminescence (NanoLuc method). […] The plates were then incubated for 3 min at room temperature and the luminescence was assessed using a plate luminometer (Molecular Devices, San Jose, CA, USA) with 1 s integration time. Luminescence readings were normalized to values from control wells containing no drug. […]

P. falciparum Dd2 strain = assay: Resistance assessment, Dd2 strain; assay type: cell-based; settings: Plasmodium falciparum
hemozoin formation = assay: Hemozoin formation inhibition assay; assay type: biochemical; settings: hemin 25 µM, pH 4.8, 4 h, one experiment in triplicate
Description: 2. Hemozoin Formation Inhibition Assay
The hemozoin formation inhibition assay was performed as described previously.12 Briefly, serial 1:3 dilutions, in a 96‐well plate, wit h brussonol were made in a final volume of 20 μL in a concentration 10 times higher than the final concentration of the assay. Secondly, 90 μ L of freshly prepared hemin (at a final concentration of 25 μM) solution in 1M NaOAc/HOAc buffer pH 4.8 were added followed by addition of 90 μ L of 5.4 mg/L Tween 20 solution freshly prepared. The plates were let to stand for 4 hours at 37 °C followed by resuspension with multichannel pippete and read at 415 and 630 nm using a SpectraMAX Plus 384 plate reader (Molecular Devices Corp., Sunnyvale, CA).
Due to the absence of enough compound, this experiment wa s performed only once, but with internal triplicate. Chloroquine (CQ) and pyrimethamine (PYR) were used as positive and negative control of inhibition, respectively.
Inhibition (%) = 100 – 100 x [(Aco ntro l – Asample) / (Acontrol - Amin)] Acontrol is the difference of the absorbance at 415 and 630 nm of the negative control (Hemin +, Tween 20 ‐, Compound ‐); Amin is the difference of the absorbance at 415 and 630 nm of the positive control (Hemin +, Tween 20 +, Compound ‐ ); Asample is the difference of the absorbance at 415 and 630 nm of the sample. The hemozoin formation inhibition assay was performed to evaluate if brussonol act inhibiting hemozoin formation in P. falciparum. CQ, which is a well‐known inhibitor of hemozoin […]
Figure S1. Hemozoin formation inhibition assay. Different concentrations of CQ (black triangles), PYR (red squares) and brussonol (blue circles) were incubated with heme in triplicates. Th e absorbance was recorded at 415/630 nm to determine the hemozoin formation inhibition. […]

P. falciparum 3D7 strain = assay: Chemical rescue assay with isopentenyl pyrophosphate (IPP); assay type: cell-based, Plasmodium falciparum; settings: for IC50: Plasmodium falciparum, 3D7 strain, 72 h
Description: To evaluate whether brussonol interfered with the biosynthesis of […] in malaria parasites, we conducted a chemical rescue assay. The assay identifies compounds that interfere with the metabolism of isoprenoids by “rescuing” their growth inhibition through the supplementation of isopentenyl pyrophosphate (IPP), a key precursor of isoprenoid biosynthesis. […] Thus, the chemical rescue assay compares the IC50 values of the tested compound in the presence and absence of IPP. We used fosmidomycin (FOS) as a positive control for growth inhibition rescuing upon supplementation of IPP (Figure 7b). In this assay, compounds that interfere in the metabolism of isoprenoids show a significant increment in the IC50 value in the presence of IPP (Figure 7b).
The chemical rescue assay was carried out as described by Yeh and DeRisi (2011). This assay consists in verifying the IC50 value of the tested compounds with and without the isopentenyl pyrophosphate (IPP), purchased from Isoprenoids, LC (Florida, USA). Briefly, 3D7 strain ring stages were cultured in 96-well plates, with 0.5% parasitemia and 2% hematocrit. Non-parasitized erythrocytes and parasitized erythrocytes without drugs were used as growth controls, and fosmidomycin (FOS) was used as a positive control for chemical rescue. Serial dilutions of brussonol and FOS were prepared in duplicates. In the same 96-well plate, brussonol and FOS had their antiplasmodial activity evaluated with and without supplementation of 200 µM IPP. Plates were incubated for 72 h and analyzed by the SYBR Green I assay.

## CC(C)c1cc2c(c(O)c1O)C[C@@]13CCCC(C)(C)[C@@H]1C[C@@H]2O3 [Compound 1, brussonol]
P. knowlesi
  IC50: 20 ± 4 µM
P. falciparum Dd2 strain
  IC50: 7 ± 2 µM
Hemozoin formation; listed as Brussonol
  hemozoin formation inhibition (in words): do not act inhibiting hemozoin formation
Hemozoin formation; listed as brussonol
  hemozoin formation inhibition (in words): did not interfere with hemozoin polymerization
P. falciparum 3D7 strain; 200 µM IPP
  reversal of growth inhibition by IPP supplementation: did not reverse the growth inhibition
P. falciparum 3D7 strain; with 200 µM IPP, read-out: IC50 in the presence of IPP
  IC50: 13.9 ± 0.2 µM
P. falciparum 3D7 strain; without IPP, read-out: IC50 in the absence of IPP
  IC50: 18 ± 1 µM
